Measured values reported in US10662146B2, “Prodrugs of fencamfamine” (Praxis Bioresearch, LLC, priority 2015, dated 2020).
Like-named read-outs stand apart in the source and are kept apart here.

Columns and labels:
[1] = Single dose intravenous PK study in male Sprague Dawley rats (plasma by LC-MS/MS); assay type: in vivo; settings: male, Sprague Dawley, rat; IV 2 mg/kg [equivalent to PRX-002 (−)], analyte: prodrug in plasma, mean; read-out: IV PK Parameters Tmax, Prodrug
Method: (§1) We describe here PK results of prodrugs of PRX-002 (−) or (+) isomers. All doses of prodrugs were administered such that they were equivalent to 5 mg/kg of PRX-002 (−) or (+) for oral studies and 2 mg/kg PRX-002 (−) or (+) for intravenous studies in male Sprague-Dawley (MSD) rats. Higher doses of up to 10 or 15 mg/kg [again equivalent to PRX-002 (−)] were used in some studies (as specified)]. Formulation preparation, dose administration and time of sample collection was as follows.
(§2) Adult male Sprague Dawley Rats aged 8-10 weeks were used for the study. Animals were administered the test item by Intravenous bolus route with a dose of 2 mg/kg body weight at dose volume of 5.0 mL/kg body weight. Under mild isoflurane anesthesia, blood specimens were collected by retro-orbital puncture method using capillary tubes into pre-labeled tubes containing anticoagulant (K2EDTA-2 mg/mL blood) during the next 24 hours of post dose as mentioned in below table. For blood sampling at multiple time points, right and left eyes were used alternatively for blood collection. Collected blood specimens were centrifuged at 4000 rpm, 4° C. for 10 minutes and plasma were separated and stored at −80° C. until analysis.
Blood was collected as outlined in Table 39.2 (IV).
Test item PRX-P4-003 was weighed and transferred to a graduated tube. Then 600 μL of PEG 400 (v/v) was added and vortex mixed thoroughly until the test item was completely dissolved. Then 1.800 mL of Hydroxypropyl-β-cyclodextrin (HPβCD, 50% w/v) was added and vortex mixed thoroughly. The final volume was then made up to 3.600 mL with sterile water for injection (SWFI, v/v) with final formulation strength of 5.16 mgA/mL. […] This formulation was freshly prepared before the administration to animals.
as §2, with “administered with a PRX-P4-003” for “administered the test item”, “of 10” for “of 2”, “of 5” for “of 5.0”
Test item PRX-P5-006 was weighed and transferred to a graduated tube. Then 500 μL of DMSO (v/v) was added vortex mixed thoroughly until the test item was completely dissolved. Then 4000 μL of Hydroxypropyl-β-cyclodextrin (HPβCD, 50% w/v) was added and vortex mixed thoroughly. Then 2500 μL of PEG 400 (v/v) was added and vortex mixed thoroughly. The final volume was then made up to 10000 μL with sterile water for injection (SWFI, v/v) with final formulation strength of 3.97 mg/mL. […] This formulation was freshly prepared before the administration to animals.
as §2, with “administered with a PRX-P5-006” for “administered the test item”, “of 15” for “of 2”, “of 10” for “of 5.0”
The plasma concentrations of fencamfamine were measured by LC-MS/MS over time. […] The release of fencamfamine from the prodrugs varied depending on the chain length of the fatty acid linkers attached to fencamfamine. […]

[2] = Single dose oral PK study in male Sprague Dawley rats (plasma by LC-MS/MS); assay type: in vivo; settings: mean; for AUC: read-out: Oral PK Parameters AUC, Prodrug
Method: as §1
Test item was weighed [5 mg equivalent dose of PRX-002 for prodrugs] and transferred to a graduated tube. Then 10 μL of Tween 80 was added and vortexed mixed until the test item was completely mixed. Small volume of 0.5% (w/v) carboxymethylcellulose in water solution was then added dropwise with continuous vortex mixing until a uniform suspension was obtained. The final volume was then made up to 10 mL with 0.5% (w/v) carboxymethylcellulose in water with final strength of 0.5 mg/mL. […] This formulation was freshly prepared before the administration to animals.
as §2, with “study. Fasted animals” for “study. Animals”, “administered” for “administered the”, “by oral” for “by Intravenous bolus”, “of 5” for “of 2”, “of 10” for “of 5.0”
Blood was collected as outlined in Table 39.1 (oral).
(§3) Test item PRX-P4-003 was weighed and transferred to a graduated tube. Then 12.42 μL of Tween 80 was added and vortexed mixed until the test item was completely mixed. Small volume of 0.5% (w/v) Carboxymethylcellulose in water solution was then added dropwise with continuous vortex mixing until a uniform suspension was obtained. The final volume was then made up to 12.42 mL with 0.5% (w/v) Carboxymethylcellulose in water with final strength of 1.0 mgA/mL. […] This formulation was freshly prepared before the administration to animals.
as §2, with “study. Fasted animals” for “study. Animals”, “administered with a PRX-P4-003” for “administered the test item”, “by oral” for “by Intravenous bolus”, “of 10” for “of 2”, “of 10” for “of 5.0”
as §3, with “PRX-P5-006” for “PRX-P4-003”, “10” for “12.42”, “3.97 mg/mL.” for “1.0 mgA/mL.”
Adult male Sprague Dawley Rats aged 8-10 weeks were used for the study. Fasted animals were administered with a PRX-P5-006 by oral route with a dose of 15 mg/kg body weight at dose volume of 10 mL/kg body weight. […]

[3] = male, Sprague Dawley, rat, in vivo, oral 5 mg/kg [equivalent to PRX-002 (−)], analyte: prodrug in plasma, read-out: Oral PK Parameters Tmax, Prodrug
[4] = male, Sprague Dawley, rat, in vivo, po, 5 mg/kg, oral 5 mg/kg [equivalent to PRX-002 (−)], analyte: prodrug in plasma, read-out: Oral PK Parameters Cmax, Prodrug
[5] = male, Sprague Dawley, rat, in vivo, oral 5 mg/kg [equivalent to PRX-002 (−)], analyte: prodrug in plasma

`CCCCCCCCCC(=O)OC(C)OC(=O)N(CC)C1C2CCC(C2)C1c1ccccc1` (single isomer, unassigned) [PRX-P5-002, N-(1-Decanoyloxyethoxycarbonyl)-(−)-N-ethyl-3-phenylbicyclo[2.2.1]heptan-2-amine] gave a Tmax [1] of 0 h and a Tmax [2, 3] of 0 min.
Compound `CCN(C(=O)[C@@H](N)Cc1ccccc1)C1C2CCC(C2)C1c1ccccc1` (stereo partly drawn) [PRX-P1-013, N-Phenylalanyl-(−)-N-ethyl-3-phenylbicyclo[2.2.1]heptan-2-amine] has a Cmax [2, 4] of 307 ± 49.6 ng/mL, an AUC [2, 5] of 678 ± 101 ng·h/mL and a Tmax [2, 3] of 42 ± 18 min.
`CCCCCCCCCC(=O)OCOC(=O)N(CC)C1C2CCC(C2)C1c1ccccc1` (single isomer, unassigned) [PRX-P4-002, N-(Decanoyloxymethoxycarbonyl)-(−)-N-ethyl-3-phenylbicyclo[2.2.1]heptan-2-amine] gave a Tmax [1] of 0 h and a Tmax [2, 3] of 0 min.
For `CCN(C(=O)[C@@H](NC(=O)[C@@H](N)C(C)C)C(C)C)C1C2CCC(C2)C1c1ccccc1` (single isomer, unassigned) [PRX-P6-011, N-(Valyl-valyl)-(+)-N-ethyl-3-phenylbicyclo[2.2.1]heptan-2-amine], the “AUC% extrap of PRX-P6-011” value ([2]; PRX-P6-011 oral 5 mg/kg) was 23.190 ± 3.6640%, the Cmax [2, 4] was 82.2 ± 30.9 ng/mL and the concentration at 0 h ([2]; male, Sprague Dawley, rat, in vivo, PRX-P6-011 oral 5 mg/kg b.w., 0.00 h, read-out: Plasma concentrations of PRX-P6-011) was 0 ng/mL. The concentration at 0.08 h ([2]; male, Sprague Dawley, rat, in vivo, PRX-P6-011 oral 5 mg/kg b.w., 0.08 h, read-out: Plasma concentrations of PRX-P6-011) was 75.9 ng/mL, the concentration at 4 h ([2]; male, Sprague Dawley, rat, in vivo, PRX-P6-011 oral 5 mg/kg b.w., 4.00 h, read-out: Plasma concentrations of PRX-P6-011) was 0 ng/mL and the concentration at 6 h ([2]; male, Sprague Dawley, rat, in vivo, PRX-P6-011 oral 5 mg/kg b.w., 6.00 h, read-out: Plasma concentrations of PRX-P6-011) was 0 ng/mL. For the same compound, the concentration at 24 h ([2]; male, Sprague Dawley, rat, in vivo, PRX-P6-011 oral 5 mg/kg b.w., 24.00 h, read-out: Plasma concentrations of PRX-P6-011) was 0 ng/mL, the AUC [2, 5] was 44.2 ± 17.1 ng·h/mL and the Tmax [2, 3] was 8.4 ± 6 min. It also gave an AUC(0-inf) ([2]; male, Sprague-Dawley, rat, in vivo, po, 5 mg/kg, PRX-P6-011 oral 5 mg/kg, read-out: AUCinf of PRX-P6-011) of 57.3 ± 21.3 ng·h/mL, an AUC(0-t) ([2]; male, Sprague-Dawley, rat, in vivo, po, 5 mg/kg, PRX-P6-011 oral 5 mg/kg, read-out: AUClast of PRX-P6-011) of 44.2 ± 17.1 ng·h/mL and a Cmax ([2]; male, Sprague-Dawley, rat, in vivo, po, 5 mg/kg, PRX-P6-011 oral 5 mg/kg, read-out: Cmax of PRX-P6-011) of 82.2 ± 30.9 ng/mL. It also gave an MRT last ([2]; male, Sprague-Dawley, rat, in vivo, po, 5 mg/kg, PRX-P6-011 oral 5 mg/kg, read-out: MRTlast of PRX-P6-011) of 34.5 ± 2.22 min, a half-life ([2]; male, Sprague-Dawley, rat, in vivo, po, 5 mg/kg, PRX-P6-011 oral 5 mg/kg, read-out: T1/2 of PRX-P6-011 (converted)) of 70.3 ± 12.7 min and a concentration at 0.25 h ([2]; male, Sprague-Dawley, rat, in vivo, PRX-P6-011 oral 5 mg/kg b.w., 0.25 h, read-out: Plasma concentrations of PRX-P6-011) of 62.8 ng/mL. It also gave a concentration at 0.5 h ([2]; male, Sprague-Dawley, rat, in vivo, PRX-P6-011 oral 5 mg/kg b.w., 0.50 h, read-out: Plasma concentrations of PRX-P6-011) of 20.8 ng/mL, a concentration at 1 h ([2]; male, Sprague-Dawley, rat, in vivo, PRX-P6-011 oral 5 mg/kg b.w., 1.00 h, read-out: Plasma concentrations of PRX-P6-011) of 13 ng/mL and a concentration at 2 h ([2]; male, Sprague-Dawley, rat, in vivo, PRX-P6-011 oral 5 mg/kg b.w., 2.00 h, read-out: Plasma concentrations of PRX-P6-011) of 7.87 ng/mL. It also gave a Tmax ([2]; male, Sprague-Dawley, rat, in vivo, PRX-P6-011 oral 5 mg/kg, read-out: Tmax of PRX-P6-011) of 8.22 ± 5.88 min.
Compound `CCN(C(=O)[C@@H](N)CCCCN)C1C2CCC(C2)C1c1ccccc1` (stereo partly drawn) [PRX-P1-005, N-Lysyl-(−)-N-ethyl-3-phenylbicyclo[2.2.1]heptan-2-amine] has a Cmax [2, 4] of 32 ± 7.5 ng/mL, an AUC [2, 5] of 42 ± 9.4 ng·h/mL and a Tmax [2, 3] of 30 min.
